Reference: patent publication US8563714B2, “Bridged spiro [2.4] heptane derivatives as ALX receptor and/or FPRL2 agonists” (Actelion Pharmaceuticals Ltd., priority 2009, dated 2013)

Assays:
human FPRL2 = biological target: T1, human FPRL2 (Homo sapiens, UniProt P25089); assay: Intracellular calcium measurements (FLIPR), agonistic activity in HEK293-hFPRL2-Gα16 cells; format: cell-based; conditions: Fluo-4 calcium FLIPR, normalized to GLY14-Humanin 100 nM
T1 construct: expressed in transfected cells; host or cells: HEK293 (HEK293-hFPRL2-Gα16)
T1 sequence (P25089 1-353): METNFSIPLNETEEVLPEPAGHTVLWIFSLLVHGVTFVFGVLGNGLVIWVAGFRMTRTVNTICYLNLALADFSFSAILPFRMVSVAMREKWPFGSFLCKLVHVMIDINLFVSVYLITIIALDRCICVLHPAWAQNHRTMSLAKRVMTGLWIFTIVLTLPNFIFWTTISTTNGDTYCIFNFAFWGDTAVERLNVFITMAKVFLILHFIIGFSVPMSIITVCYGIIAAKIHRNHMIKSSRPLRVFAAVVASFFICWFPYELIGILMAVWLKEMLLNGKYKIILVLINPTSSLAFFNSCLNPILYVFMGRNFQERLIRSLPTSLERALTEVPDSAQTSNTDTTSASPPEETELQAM
Procedure, shortened: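 Peak values after baseline subtraction are expressed relative to 100 nM Gly14-Humanin; compounds diluted in assay buffer from 10 mM DMSO stocks.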

human ALX receptor = biological target: T2, human ALX receptor (Homo sapiens, UniProt P25090); assay: Intracellular calcium measurements (FLIPR), agonistic activity in HEK293-hALXR-Gα16 cells; format: cell-based; conditions: Fluo-4 calcium FLIPR, normalized to WKYMVm 10 nM
T2 construct: expressed in transfected cells; host or cells: HEK293 (HEK293-hALXR-Gα16)
T2 sequence (P25090 1-351): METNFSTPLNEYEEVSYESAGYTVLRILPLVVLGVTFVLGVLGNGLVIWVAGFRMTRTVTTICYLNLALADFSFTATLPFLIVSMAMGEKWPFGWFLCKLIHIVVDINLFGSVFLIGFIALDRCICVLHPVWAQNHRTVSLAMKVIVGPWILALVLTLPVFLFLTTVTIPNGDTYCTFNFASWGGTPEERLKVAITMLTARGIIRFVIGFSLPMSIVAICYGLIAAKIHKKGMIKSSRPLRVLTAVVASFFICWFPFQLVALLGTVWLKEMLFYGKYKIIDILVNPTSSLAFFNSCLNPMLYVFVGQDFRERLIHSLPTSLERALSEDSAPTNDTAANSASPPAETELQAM
Procedure, shortened: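 HEK293 cells expressing hALXR and Gα16 were loaded with 1 μM Fluo-4 AM and 20 mM HEPES for 60 min at 37°C, then exposed to serially diluted compound. FLIPR fluorescence was read at ex 488/em 540 nm. Baseline-subtracted peak responses were normalized to 10 nM WKYMVm.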

EC50 (human FPRL2)	EC50 (human ALX receptor)	SMILES
2640 nM	76 nM	NCCCNC(=O)[C@H]1[C@H](C(=O)NCc2ccc(Br)cc2)[C@@H]2C=C[C@H]1C21CC1 (racemic) [Example 307, (5R*)—N^5-(4-Bromophenyl-methyl)-(6R*)—N^6-(3-amino-propyl)-(4S*,7R*)-[4,7-ethenylene-spiro[2.4]heptane]-5,6-dicarboxamide]
4620 nM	1.1 nM	NC(=O)CCNC(=O)[C@H]1[C@H](C(=O)Nc2ccc(Br)cc2)[C@@H]2C=C[C@H]1C21CC1 [Example 13, (5R)—N^5-(4-Bromophenyl)-(6R)—N^6-(2-carbamoyl-ethyl)-(4S,7R)-[4,7-ethenylene-spiro[2.4]heptane]-5,6-dicarboxamide]
885 nM	> 2390 nM	O=C(NCCCCN1CCCC1)[C@H]1[C@H](C(=O)NCCc2ccccn2)[C@@H]2C=C[C@H]1C21CC1 (racemic) [Example 343, (5R*)—N^5-(2-(Pyridin-2-yl)ethyl)-(6R*)—N^6-(4-pyrrolidino-butyl)-(4S*,7R*)-[4,7-ethenylene-spiro[2.4]heptane]-5,6-dicarboxamide]
8300 nM	146 nM	CC(C)(C)CCNC(=O)[C@H]1[C@H](C(=O)Nc2ccc(Br)cc2)[C@@H]2C=C[C@H]1C21CC1 (racemic) [Example 85, (5R*)—N^5-(4-Bromophenyl)-(6R*)—N^6-(3,3-dimethyl-butyl)-(4S*,7R*)-[4,7-ethenylene-spiro[2.4]heptane]-5,6-dicarboxamide]
122 nM	263 nM	O=C(NCCCCN1CCCC1)[C@H]1[C@H](C(=O)Nc2ccc(OC(F)(F)F)cc2)[C@@H]2C=C[C@H]1C21CC1 (racemic) [Example 133, (5R*)—N^5-(4-Trifluoromethoxyphenyl)-(6R*)—N^6-(4-pyrrolidin-1-yl-butyl)-(4S*,7R*)-[4,7-ethenylene-spiro[2.4]heptane]-5,6-dicarboxamide]
2200 nM	156 nM	O=C(NCCCN1CCOCC1)[C@H]1[C@H](C(=O)Nc2ccc(Br)cc2)[C@@H]2C=C[C@H]1C21CC1 (racemic) [Example 87, (5R*)—N^5-(4-Bromophenyl)-(6R*)—N^6-(3-morpholino-propyl)-(4S*,7R*)-[4,7-ethenylene-spiro[2.4]heptane]-5,6-dicarboxamide]
746 nM	673 nM	COc1ccc(NC(=O)[C@H]2[C@H](C(=O)NCCCCN3CCCC3)[C@H]3C=C[C@@H]2C32CC2)cn1 (racemic) [Example 250, (5R*)—N^5-(2-Methoxy-pyrid-5-yl)-(6R*)—N^6-(4-pyrrolidin-1-yl-butyl)-(4S*,7R*)-[4,7-ethenylene-spiro[2.4]heptane]-5,6-dicarboxamide]
350 nM	9970 nM	O=C(NCCCCN1CCCC1)[C@H]1[C@H](C(=O)NCc2cc(C(F)(F)F)ccc2F)[C@@H]2C=C[C@H]1C21CC1 (racemic) [Example 365, (5R*)—N^5-(2-Fluoro-5-trifluoromethylphenyl-methyl)-(6R*)—N^6-(4-pyrrolidino-butyl)-(4S*,7R*)-[4,7-ethenylene-spiro[2.4]heptane]-5,6-dicarboxamide]
2980 nM	31 nM	O=C(NCCC(=O)N1CCCC1)[C@H]1[C@H](C(=O)Nc2ccc(Br)cc2)[C@@H]2C=C[C@H]1C21CC1 (racemic) [Example 206, (5R*)—N^5-(4-Bromophenyl)-(6R*)—N^6-(3-pyrrolidino-3-oxopropyl)-(4S*,7R*)-[4,7-ethenylene-spiro[2.4]heptane]-5,6-dicarboxamide]
1170 nM	290 nM	CN(C)CCNC(=O)[C@H]1[C@H](C(=O)NCc2ccc(Br)cc2)[C@@H]2C=C[C@H]1C21CC1 (racemic) [Example 274, (5R*)—N^5-(4-Bromophenyl-methyl)-(6R*)—N^6-(2-dimethylamino-ethyl)-(4S*,7R*)-[4,7-ethenylene-spiro[2.4]heptane]-5,6-dicarboxamide]
734 nM	> 25000 nM	O=C(NCCCCN1CCCC1)[C@H]1[C@H](C(=O)Nc2nc(C(F)(F)F)cs2)[C@@H]2C=C[C@H]1C21CC1 (racemic) [Example 345, (5R*)—N^5-(4-Trifluoromethyl-thiazol-2-yl)-(6R*)—N^6-(4-pyrrolidino-butyl)-(4S*,7R*)-[4,7-ethenylene-spiro[2.4]heptane]-5,6-dicarboxamide]
454 nM	95 nM	Cc1ccc(NC(=O)[C@H]2[C@H](C(=O)NCCCCN3CCCC3)[C@H]3C=C[C@@H]2C32CC2)nc1 (racemic) [Example 121, (5R*)—N^5-(5-Methyl-pyridin-2-yl)-(6R*)—N^6-(4-pyrrolidin-1-yl-butyl)-(4S*,7R*)-[4,7-ethenylene-spiro[2.4]heptane]-5,6-dicarboxamide]
1480 nM	19 nM	NCCCCNC(=O)[C@H]1[C@H](C(=O)Nc2ccc(Br)cc2)[C@H]2C=C[C@@H]1C21CC1 (relative stereo) [Example 339, (5R*)—N^5-(4-Aminobutyl)-(6R*)—N^6-(4-bromophenyl)-(4S*,7R*)-[4,7-ethenylene-spiro[2.4]heptane]-5,6-dicarboxamide]

The next lines start with the compound.

SMILES	EC50 (human FPRL2)	EC50 (human ALX receptor)
O=C(CCc1c[nH]c2ccccc12)NC[C@H]1[C@H](C(=O)Nc2ccc(Br)cc2)[C@@H]2C=C[C@H]1C21CC1 (racemic) [Example 186, (5R*)—N^5-(4-Bromo-phenyl)-(6R*)-6-[(3-1H-indol-3-yl-propionylamino)-methyl]-(4S*,7R*)-[4,7-ethenylene-spiro[2.4]heptane]-5-carboxamide]	8960 nM	463 nM
O=C(NCCCO)[C@H]1[C@H](C(=O)Nc2ncc(Br)s2)[C@@H]2CC[C@H]1C21CC1 [Example 404, (5R)—N^5-(5-Bromothiazol-2-yl)-(6R)—N^6-(3-hydroxypropyl)-(4S,7R)-[4,7-ethylene-spiro[2.4]heptane]-5,6-dicarboxamide]	10000 nM	96 nM
COCCCNC(=O)[C@H]1[C@H](C(=O)Nc2ccc(Br)cc2)[C@@H]2CC[C@H]1C21CC1 (racemic) [Example 103, (5R*)—N^5-(4-Bromophenyl)-(6R*)—N^6-(3-methoxy-propyl)-(4S*,7R*)-[4,7-ethylene-spiro[2.4]heptane]-5,6-dicarboxamide]	6920 nM	4.8 nM
COCCN(CCOC)C(=O)C1C(C(=O)Nc2ccc(Br)cc2)C2C=CC1C21CC1 (racemic) [Example 35, (5R*)—N^5-(4-Bromophenyl)-(6R*)—N^6,N^6-bis-(2-methoxy-ethyl)-(4S*,7R*)-[4,7-ethenylene-spiro[2.4]heptane]-5,6-dicarboxamide]	1870 nM	6.1 nM
CCCCNC(=O)[C@H]1[C@H](C(=O)Nc2ccc(Br)cc2)[C@@H]2C=C[C@H]1C21CC1 (relative stereo) [Example 74, (5R*)—N^5-(4-Bromophenyl)-(6R*)—N^6-(butyl)-(4S*,7R*)-[4,7-ethenylene-spiro[2.4]heptane]-5,6-dicarboxamide]	18200 nM	72 nM
CC(C)(C)OC(=O)N1CCCC(NC(=O)C2C(C(=O)Nc3ccc(Br)cc3)C3C=CC2C32CC2)C1 (mixture of isomers) [Example 56, (5R*)—N^5-(4-Bromophenyl)-(6R*)—N^6-(N-tert-butoxycarbonyl-piperidin-3-yl)-(4S*,7R*)-[4,7-ethenylene-spiro[2.4]heptane]-5,6-dicarboxamide]	1750 nM	18 nM
NS(=O)(=O)c1ccc(CCNC(=O)[C@H]2[C@H](C(=O)NCCc3ccc(Cl)cc3)[C@@H]3C=C[C@H]2C32CC2)cc1 [Example 390, (5R)—N^5-(2-(4-Chlorophenyl)ethyl)-(6R)—N^6-(2-(4-aminosulfonyl-phenyl)-ethyl)-(4S,7R)-[4,7-ethenylene-spiro[2.4]heptane]-5,6-dicarboxamide]	576 nM	> 25000 nM
COCC(Cc1ccccc1)NC(=O)C1C(C(=O)Nc2ccc(Br)cc2)C2C=CC1C21CC1 [Example 100, (5R*)—N^5-(4-Bromophenyl)-(6R*)—N^6-[(1S)-2-methoxy-1-benzyl-ethyl]-(4S*,7R*)-[4,7-ethenylene-spiro[2.4]heptane]-5,6-dicarboxamide]	6110 nM	735 nM
O=C(NCC1CCCNC1)[C@H]1[C@H](C(=O)Nc2ncc(Br)s2)[C@@H]2CC[C@H]1C21CC1 (stereo partly drawn) [Example 418, (5R)—N^5-(5-Bromothiazol-2-yl)-(6R)—N^6-[(piperidin-3-yl)-methyl]-(4S,7R)-[4,7-ethylene-spiro[2.4]heptane]-5,6-dicarboxamide]	339 nM	0.45 nM
